According to publication PMC9596378, “Discovery and molecular basis of subtype-selective cyclophilin inhibitors” (Nature Chemical Biology, 2022):
Where “and” joins values, the source holds several entries; their conditions need not be identical. Identical values can stand only once. Like-named read-outs stand apart in the source and are kept apart here.

Legend:
NKTR = biological target: T1, NKTR (Homo sapiens, UniProt P30414); experiment: Chymotrypsin coupled prolyl-isomerase assay; type: biochemical; settings: for NKTR prolyl-isomerase assay raw dose-response value: Fig. 3b source data, replicates
T1 construct: NKTR (UniProtKB Entry P30414: residues 7–179); host or cells: E. coli BL21(DE3)
T1 sequence (P30414 7-179): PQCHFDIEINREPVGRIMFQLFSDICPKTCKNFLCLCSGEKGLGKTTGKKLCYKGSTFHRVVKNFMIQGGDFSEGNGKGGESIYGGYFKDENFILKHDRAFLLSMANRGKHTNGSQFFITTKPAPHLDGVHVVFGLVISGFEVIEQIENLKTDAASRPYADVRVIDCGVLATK

CypB = biological target: T2, CypB (Homo sapiens, UniProt P23284); experiment: biochemical; settings: for CypB prolyl-isomerase assay raw dose-response value: Fig. 3b source data, replicates
T2 construct: PPIB (UniProtKB Entry P23284: residues 34–216); His6 with TEV site (2BT vector leader) (N); made in house; host or cells: E. coli BL21(DE3)
In short: (§1)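 5 nM Cyp, HEPES pH 7.3/NaCl/Triton buffer, 2–3 °C; cpd 5 min, chymotrypsin 25 µM 5 min, then Suc-AAPF-AMC 5 µM in LiCl/TFE. Kinetic fluorescence 330 s. Per-well rate constants, normalized, IC50 from nonlinear fit.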

CypC = biological target: T3, CypC (Homo sapiens, UniProt P45877); experiment: Chymotrypsin coupled prolyl-isomerase assay; type: biochemical; settings: for CypC prolyl-isomerase assay raw dose-response value: Fig. 3b source data, replicates
T3 construct: PPIC (UniProtKB Entry P45877: residues 24–212); host or cells: E. coli BL21(DE3)
In short: as §1

CypA = biological target: T4, CypA (Homo sapiens, UniProt P62937); experiment: Chymotrypsin coupled prolyl-isomerase assay; type: biochemical; settings: for CypA prolyl-isomerase assay raw dose-response value: Fig. 3b source data, replicates
T4 construct: PPIA (UniProtKB Entry P62937: residues 1–165); made in house; host or cells: E. coli BL21(DE3)
In short: as §1

CypE = biological target: T5, CypE (Homo sapiens, UniProt Q9UNP9); experiment: Chymotrypsin coupled prolyl-isomerase assay; type: biochemical; settings: for CypE prolyl-isomerase assay raw dose-response value: Fig. 3b source data, replicates
T5 construct: PPIE (UniProtKB Entry Q9UNP9: residues 131–301); host or cells: E. coli BL21(DE3)
In short: as §1

CypG = biological target: T6, CypG (Homo sapiens, UniProt Q13427); experiment: Chymotrypsin coupled prolyl-isomerase assay; type: biochemical; settings: for CypG prolyl-isomerase assay raw dose-response value: Fig. 3b source data, replicates
T6 construct: PPIG (UniProtKB Entry Q13427: residues 1–179); His6 with thrombin site (pET28a LIC leader) (N); host or cells: E. coli BL21(DE3)
T6 sequence (Q13427 1-179): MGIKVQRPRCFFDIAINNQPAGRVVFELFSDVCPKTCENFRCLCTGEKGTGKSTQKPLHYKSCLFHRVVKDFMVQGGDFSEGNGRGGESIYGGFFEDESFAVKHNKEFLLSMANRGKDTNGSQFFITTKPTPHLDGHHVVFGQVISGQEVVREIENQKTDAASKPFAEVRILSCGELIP
In short: as §1

CypH = biological target: T7, CypH (Homo sapiens, UniProt O43447); experiment: Chymotrypsin coupled prolyl-isomerase assay; type: biochemical; settings: for CypH prolyl-isomerase assay raw dose-response value: Fig. 3b source data, replicates
T7 construct: PPIH (UniProtKB Entry O43447: residues 1–177); His6 with TEV site (2BT vector leader) (N); made in house; host or cells: E. coli BL21(DE3)
In short: as §1

Cyp40 = Cyp40 (Homo sapiens, UniProt Q08752); experiment: Chymotrypsin coupled prolyl-isomerase assay; settings: for Cyp40 prolyl-isomerase assay raw dose-response value: Fig. 3b source data, replicates
In short: as §1

T3 sequence (P45877 24-212): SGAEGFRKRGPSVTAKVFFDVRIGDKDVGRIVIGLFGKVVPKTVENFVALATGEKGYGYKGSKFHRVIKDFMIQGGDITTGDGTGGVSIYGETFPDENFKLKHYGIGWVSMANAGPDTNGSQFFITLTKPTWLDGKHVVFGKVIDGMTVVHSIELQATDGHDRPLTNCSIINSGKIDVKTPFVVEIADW
Chain of Cyp40 (Q08752 1-183): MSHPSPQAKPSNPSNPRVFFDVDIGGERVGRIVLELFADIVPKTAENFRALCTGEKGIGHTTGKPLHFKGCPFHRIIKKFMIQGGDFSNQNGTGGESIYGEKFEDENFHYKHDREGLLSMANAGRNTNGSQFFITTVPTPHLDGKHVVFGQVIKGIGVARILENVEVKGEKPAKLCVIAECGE
T7 sequence (O43447 whole entry, the tested form may be a part): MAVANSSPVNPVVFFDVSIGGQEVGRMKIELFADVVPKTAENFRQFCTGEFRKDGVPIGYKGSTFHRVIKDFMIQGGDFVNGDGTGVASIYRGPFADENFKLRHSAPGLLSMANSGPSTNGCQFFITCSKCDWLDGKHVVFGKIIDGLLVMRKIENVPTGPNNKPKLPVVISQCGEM
T5 sequence (Q9UNP9 131-301): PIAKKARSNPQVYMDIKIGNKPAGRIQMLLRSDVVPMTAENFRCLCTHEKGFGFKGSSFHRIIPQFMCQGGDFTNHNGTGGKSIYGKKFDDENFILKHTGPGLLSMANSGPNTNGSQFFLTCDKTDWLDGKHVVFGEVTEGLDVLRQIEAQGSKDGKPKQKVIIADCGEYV
T2 sequence (P23284 34-216): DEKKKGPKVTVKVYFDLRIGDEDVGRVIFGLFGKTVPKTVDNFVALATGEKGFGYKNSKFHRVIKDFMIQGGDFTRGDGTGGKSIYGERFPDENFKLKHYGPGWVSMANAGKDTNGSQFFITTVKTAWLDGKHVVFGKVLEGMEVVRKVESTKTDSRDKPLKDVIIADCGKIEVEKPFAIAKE
T4 sequence (P62937 whole entry, the tested form may be a part): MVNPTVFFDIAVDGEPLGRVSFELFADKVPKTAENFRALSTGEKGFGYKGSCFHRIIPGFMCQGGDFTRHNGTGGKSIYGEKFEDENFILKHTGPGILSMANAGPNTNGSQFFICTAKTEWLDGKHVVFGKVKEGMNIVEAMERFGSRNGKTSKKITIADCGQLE

## NCCOCCNC(=O)[C@@H]1CCNC(=O)/C=C/C(=O)N2CCC[C@](Cc3ccccc3)(C2)C(=O)N[C@@H](Cc2ccc(-c3ccc(C#CC(=O)O)cc3)cc2)C(=O)NCc2ccccc2CC(=O)N1 [Compound B25]
NKTR; Dose 0.0228624 µM
  NKTR prolyl-isomerase assay raw dose-response value: 0.03241 and 0.03231 and 0.03444
NKTR; Dose 0.0685871 µM
  NKTR prolyl-isomerase assay raw dose-response value: 0.03299 and 0.03067 and 0.03202
NKTR; Dose 0.205761 µM
  NKTR prolyl-isomerase assay raw dose-response value: 0.03236 and 0.03203
NKTR; Dose 0.617284 µM
  NKTR prolyl-isomerase assay raw dose-response value: 0.03089 and 0.03188 and 0.03316
NKTR; Dose 1.85185 µM
  NKTR prolyl-isomerase assay raw dose-response value: 0.03191 and 0.03168 and 0.03161
NKTR; Dose 5.55556 µM
  NKTR prolyl-isomerase assay raw dose-response value: 0.03134 and 0.03255 and 0.03129
NKTR; Dose 16.6667 µM
  NKTR prolyl-isomerase assay raw dose-response value: 0.03138 and 0.0295 and 0.03008
NKTR; Dose 50 µM
  NKTR prolyl-isomerase assay raw dose-response value: 0.02697 and 0.02369 and 0.02457
NKTR; wild-type NKTR, read-out: Wild-Type Cyclophilin Prolyl Isomerase Inhibition IC50 Values, NKTR
  IC50: > 50000 nM
CypB; CypB (comparator for CypB E121S), read-out: Mutant Cyclophilin Prolyl Isomerase Inhibition IC50 Values, CypB
  IC50: 11 nM
CypB; Dose 0.000457247 µM
  CypB prolyl-isomerase assay raw dose-response value: 0.06463 and 0.04091 and 0.06594
CypB; Dose 0.00137174 µM
  CypB prolyl-isomerase assay raw dose-response value: 0.06615 and 0.04875 and 0.05304
CypB; Dose 0.00411523 µM
  CypB prolyl-isomerase assay raw dose-response value: 0.04683 and 0.04984
CypB; Dose 0.0123457 µM
  CypB prolyl-isomerase assay raw dose-response value: 0.03647 and 0.03228 and 0.03371
CypB; Dose 0.037037 µM
  CypB prolyl-isomerase assay raw dose-response value: 0.02322 and 0.02268 and 0.02146
CypB; Dose 0.111111 µM
  CypB prolyl-isomerase assay raw dose-response value: 0.01709 and 0.01633 and 0.0158
CypB; Dose 0.333333 µM
  CypB prolyl-isomerase assay raw dose-response value: 0.01481 and 0.01358 and 0.01262
CypB; Dose 1 µM
  CypB prolyl-isomerase assay raw dose-response value: 0.01394 and 0.01269 and 0.01205
CypB; prolyl-isomerase inhibition, 5 nM cyclophilin, read-out: IC50 CypB
  IC50: 11 ± 3 nM
CypB; wild-type CypB, read-out: Wild-Type Cyclophilin Prolyl Isomerase Inhibition IC50 Values, CypB
  IC50: 11 nM
CypC; Dose 0.0228624 µM
  CypC prolyl-isomerase assay raw dose-response value: 0.03634 and 0.03032 and 0.04283
CypC; Dose 0.0685871 µM
  CypC prolyl-isomerase assay raw dose-response value: 0.03426 and 0.03095 and 0.03961
CypC; Dose 0.205761 µM
  CypC prolyl-isomerase assay raw dose-response value: 0.03174 and 0.03534
CypC; Dose 0.617284 µM
  CypC prolyl-isomerase assay raw dose-response value: 0.02955 and 0.03116 and 0.0299
CypC; Dose 1.85185 µM
  CypC prolyl-isomerase assay raw dose-response value: 0.02445 and 0.02477 and 0.02432
CypC; Dose 5.55556 µM
  CypC prolyl-isomerase assay raw dose-response value: 0.0192 and 0.01832 and 0.02111
CypC; Dose 16.6667 µM
  CypC prolyl-isomerase assay raw dose-response value: 0.016 and 0.01339 and 0.01312
CypC; Dose 50 µM
  CypC prolyl-isomerase assay raw dose-response value: 0.01835 and 0.01198 and 0.01251
CypC; wild-type CypC, read-out: Wild-Type Cyclophilin Prolyl Isomerase Inhibition IC50 Values, CypC
  IC50: 1800 nM
CypA; CypA column within the mutant section (comparator for CypA E81S/K82R), read-out: Mutant Cyclophilin Prolyl Isomerase Inhibition IC50 Values, CypA
  IC50: 37 nM
CypA; Dose 0.00457247 µM
  CypA prolyl-isomerase assay raw dose-response value: 0.1146 and 0.097 and 0.1434
CypA; Dose 0.0137174 µM
  CypA prolyl-isomerase assay raw dose-response value: 0.07936 and 0.08714 and 0.118
CypA; Dose 0.0411523 µM
  CypA prolyl-isomerase assay raw dose-response value: 0.05569 and 0.06344 and 0.07261
CypA; Dose 0.123457 µM
  CypA prolyl-isomerase assay raw dose-response value: 0.03132 and 0.03338 and 0.03777
CypA; Dose 0.37037 µM
  CypA prolyl-isomerase assay raw dose-response value: 0.02003 and 0.0199 and 0.02096
CypA; Dose 1.11111 µM
  CypA prolyl-isomerase assay raw dose-response value: 0.015 and 0.01431 and 0.01411
CypA; Dose 3.33333 µM
  CypA prolyl-isomerase assay raw dose-response value: 0.01402 and 0.01221 and 0.01255
CypA; Dose 10 µM
  CypA prolyl-isomerase assay raw dose-response value: 0.01563 and 0.01147 and 0.01176
CypA; prolyl-isomerase inhibition, 5 nM cyclophilin, read-out: IC50 CypA
  IC50: 37 ± 7 nM
CypA; wild-type CypA, read-out: Wild-Type Cyclophilin Prolyl Isomerase Inhibition IC50 Values, CypA
  IC50: 37 nM
CypE; Dose 0.000457247 µM
  CypE prolyl-isomerase assay raw dose-response value: 0.09478 and 0.08516 and 0.1307
CypE; Dose 0.00137174 µM
  CypE prolyl-isomerase assay raw dose-response value: 0.1073 and 0.09145 and 0.116
CypE; Dose 0.00411523 µM
  CypE prolyl-isomerase assay raw dose-response value: 0.07586 and 0.07841
CypE; Dose 0.0123457 µM
  CypE prolyl-isomerase assay raw dose-response value: 0.04723 and 0.04807 and 0.05181
CypE; Dose 0.037037 µM
  CypE prolyl-isomerase assay raw dose-response value: 0.02767 and 0.0265 and 0.02701
CypE; Dose 0.111111 µM
  CypE prolyl-isomerase assay raw dose-response value: 0.01749 and 0.01613 and 0.01666
CypE; Dose 0.333333 µM
  CypE prolyl-isomerase assay raw dose-response value: 0.01375 and 0.01292 and 0.01229
CypE; Dose 1 µM
  CypE prolyl-isomerase assay raw dose-response value: 0.01434 and 0.0116 and 0.01112
CypE; wild-type CypE, read-out: Wild-Type Cyclophilin Prolyl Isomerase Inhibition IC50 Values, CypE
  IC50: 9 nM
CypG; Dose 0.0228624 µM
  CypG prolyl-isomerase assay raw dose-response value: 0.06249 and 0.05548 and 0.0638
CypG; Dose 0.0685871 µM
  CypG prolyl-isomerase assay raw dose-response value: 0.05565 and 0.04551* and 0.05901
CypG; Dose 0.205761 µM
  CypG prolyl-isomerase assay raw dose-response value: 0.04568 and 0.0619
CypG; Dose 0.617284 µM
  CypG prolyl-isomerase assay raw dose-response value: 0.03977 and 0.04815 and 0.06466
CypG; Dose 1.85185 µM
  CypG prolyl-isomerase assay raw dose-response value: 0.05698 and 0.05304 and 0.05804
CypG; Dose 5.55556 µM
  CypG prolyl-isomerase assay raw dose-response value: 0.0448 and 0.05687 and 0.05139
CypG; Dose 16.6667 µM
  CypG prolyl-isomerase assay raw dose-response value: 0.04193 and 0.04196 and 0.0448
CypG; Dose 50 µM
  CypG prolyl-isomerase assay raw dose-response value: 0.03044 and 0.02213 and 0.02754
CypG; prolyl-isomerase inhibition, 5 nM cyclophilin, read-out: IC50 CypG
  IC50: ~25000 nM
CypG; wild-type CypG, read-out: Wild-Type Cyclophilin Prolyl Isomerase Inhibition IC50 Values, CypG
  IC50: 25000 nM
CypH; Dose 0.0228624 µM
  CypH prolyl-isomerase assay raw dose-response value: 0.04387 and 0.03667 and 0.04369
CypH; Dose 0.0685871 µM
  CypH prolyl-isomerase assay raw dose-response value: 0.04493 and 0.03523 and 0.04571
CypH; Dose 0.205761 µM
  CypH prolyl-isomerase assay raw dose-response value: 0.04732 and 0.03749
CypH; Dose 0.617284 µM
  CypH prolyl-isomerase assay raw dose-response value: 0.04296 and 0.03867 and 0.04263
CypH; Dose 1.85185 µM
  CypH prolyl-isomerase assay raw dose-response value: 0.0451 and 0.03462 and 0.04053
CypH; Dose 5.55556 µM
  CypH prolyl-isomerase assay raw dose-response value: 0.04418 and 0.03887 and 0.03972
CypH; Dose 16.6667 µM
  CypH prolyl-isomerase assay raw dose-response value: 0.03817 and 0.03665 and 0.03617
CypH; Dose 50 µM
  CypH prolyl-isomerase assay raw dose-response value: 0.02975 and 0.02514 and 0.02678
CypH; prolyl-isomerase inhibition, 5 nM cyclophilin, read-out: IC50 CypH
  IC50: ~50000 nM
CypH; wild-type CypH, read-out: Wild-Type Cyclophilin Prolyl Isomerase Inhibition IC50 Values, CypH
  IC50: 50000 nM
Cyp40; Dose 0.00457247 µM
  Cyp40 prolyl-isomerase assay raw dose-response value: 0.06429 and 0.05599 and 0.07223
Cyp40; Dose 0.0137174 µM
  Cyp40 prolyl-isomerase assay raw dose-response value: 0.05813 and 0.05507 and 0.05318
Cyp40; Dose 0.0411523 µM
  Cyp40 prolyl-isomerase assay raw dose-response value: 0.04821 and 0.05825 and 0.0731
Cyp40; Dose 0.123457 µM
  Cyp40 prolyl-isomerase assay raw dose-response value: 0.04592 and 0.05196 and 0.05288
Cyp40; Dose 0.37037 µM
  Cyp40 prolyl-isomerase assay raw dose-response value: 0.03591 and 0.03468 and 0.03748
Cyp40; Dose 1.11111 µM
  Cyp40 prolyl-isomerase assay raw dose-response value: 0.02292 and 0.02127 and 0.02239
Cyp40; Dose 3.33333 µM
  Cyp40 prolyl-isomerase assay raw dose-response value: 0.01681 and 0.01439 and 0.01521
Cyp40; Dose 10 µM
  Cyp40 prolyl-isomerase assay raw dose-response value: 0.01651 and 0.01201 and 0.01273
Cyp40; Wild-Type Cyclophilin Prolyl Isomerase Inhibition IC50 Values, Cyp40, wild-type Cyp40
  IC50: 210 nM
